Measured values: article PMC6539584, “Mosquito Acetylcholinesterase as a Target for Novel Phenyl-Substituted Carbamates” (International Journal of Environmental Research and Public …, 2019)
Read-outs that look alike come from different tables or passages of the source.

Tests used:
[1] = molecular target: T1, hAChE (Homo sapiens, UniProt P22303); assay: Ellman assay, 96-well, […] nm; type: biochemical
T1 construct: gene ACHE; commercial recombinant human enzyme (Sigma-Aldrich)

[2] = molecular target: T1, hAChE; assay: Ellman assay, 96-well, […] nm; type: biochemical; remark: listed apart in the source
[3] = Ellman assay, 96-well, […] nm; type: biochemical, Homo sapiens; settings: read-out: AgAChE, IC50, ^a nM
[4] = acetylthiocholine, pH 7.8, 10 min pre-incubation, 0.1% DMSO; covalent; read-out: hAChE IC50 ^a; cited from earlier work

T1 sequence (P22303 32-614): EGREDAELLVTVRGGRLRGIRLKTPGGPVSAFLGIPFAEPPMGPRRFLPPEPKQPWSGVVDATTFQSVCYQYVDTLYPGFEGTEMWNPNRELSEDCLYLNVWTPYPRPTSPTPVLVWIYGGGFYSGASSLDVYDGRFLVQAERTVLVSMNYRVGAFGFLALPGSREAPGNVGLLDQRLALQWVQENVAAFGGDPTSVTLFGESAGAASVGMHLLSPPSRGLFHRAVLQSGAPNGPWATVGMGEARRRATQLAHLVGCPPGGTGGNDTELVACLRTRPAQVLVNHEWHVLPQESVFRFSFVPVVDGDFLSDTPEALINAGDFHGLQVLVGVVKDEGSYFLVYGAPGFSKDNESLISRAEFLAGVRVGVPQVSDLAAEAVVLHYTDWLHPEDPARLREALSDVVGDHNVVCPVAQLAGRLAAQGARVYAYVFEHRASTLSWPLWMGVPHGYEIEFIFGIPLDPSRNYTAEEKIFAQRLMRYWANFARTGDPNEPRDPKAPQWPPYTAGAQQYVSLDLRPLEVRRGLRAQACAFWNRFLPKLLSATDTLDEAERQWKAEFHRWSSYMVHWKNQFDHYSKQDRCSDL

Compound	IC50 [1]	also measured
3-(tert-butyl)-4-(ethyl(methyl)carbamoyl)phenyl methylcarbamate [1l]		IC50 ([1]; acetylthiocholine, pH 7.8, 10 min pre-incubation, 0.1% DMSO, covalent, read-out: hAChE ^aIC50): 5500 nM
CNC(=O)Oc1cccc(C(C)(C)C)c1 [1a, 3-tert-butylphenyl methylcarbamate]		IC50 ([2]; read-out: hAChE ^aIC50; acetylthiocholine, pH 7.8, 10 min pre-incubation, 0.1% DMSO; covalent; cited from earlier work): 320 nM
CNC(=O)Oc1ccc(Br)c(C(C)(C)C)c1 [1b, 4-bromo-3-(tert-butyl)phenyl methylcarbamate]	1200 nM	
CNC(=O)Oc1cc(C(C)(C)C)ccc1Br [1d, 2-bromo-5-(tert-butyl)phenyl methylcarbamate]	48 nM	
CNC(=O)Oc1cc(C(C)(C)C)ccc1I [1e, 5-(tert-butyl)-2-iodophenyl methylcarbamate]	640 nM	
CCCCCCc1ccc(C(C)(C)C)cc1OC(=O)NC [1f, 5-(tert-butyl)-2-hexylphenyl methylcarbamate]	6300 nM	
C=CCNC(=O)c1ccc(OC(=O)NC)cc1C(C)(C)C [1h, 4-(allylcarbamoyl)-3-(tert-butyl)phenyl methylcarbamate]	2800 nM	
CNC(=O)Oc1ccc(C(=O)NC)c(C(C)(C)C)c1 [1i, 3-(tert-butyl)-4-(methylcarbamoyl)phenyl methylcarbamate]	> 100000 nM	
CNC(=O)Oc1ccc(C(=O)NCC(C)C)c(C(C)(C)C)c1 [1j, 3-(tert-butyl)-4-(isobutylcarbamoyl)phenyl methylcarbamate]	> 100000 nM	
CCN(CC)C(=O)c1ccc(OC(=O)NC)cc1C(C)(C)C [1k, 3-(tert-butyl)-4-(diethylcarbamoyl)phenyl methylcarbamate]	2300 nM	
CNC(=O)Oc1cc(C(C)(C)C)ccc1SC [1m, 5-(tert-butyl)-2-(methylthio)phenyl methylcarbamate]	640 nM	
CNC(=O)Oc1cc(C(C)(C)C)ccc1SCC(C)C [1n, 5-(tert-butyl)-2-(isobutylthio)phenyl methylcarbamate]	4700 nM	
CNC(=O)Oc1cc(C(C)(C)C)ccc1SC(C)C [1o, 5-(tert-butyl)-2-(isopropylthio)phenyl methylcarbamate]	2200 nM	
CNC(=O)Oc1cccc(C(F)(F)F)c1 [2a, 3-(trifluoromethyl)phenyl methylcarbamate]		IC50 [3]: > 100000 nM
CNC(=O)Oc1cccc([Si](C)(C)C)c1 [3a]		IC50 [2, 4]: 490 nM
CNC(=O)Oc1ccc(C)c([Si](C)(C)C)c1 [3c, 4-methyl-3-(trimethylsilyl)phenyl methylcarbamate]	2400 nM	
CNC(=O)Oc1cc(F)cc([Si](C)(C)C)c1 [3g, 3-fluoro-5-(trimethylsilyl)phenyl methylcarbamate]	4200 nM	
CC[Si](C)(C)c1cccc(OC(=O)NC)c1 [4a]		IC50 [2, 4]: 630 nM
CC[Si](C)(C)c1cc(OC(=O)NC)ccc1C [4c, 3-(ethyldimethylsilyl)-4-methylphenyl methylcarbamate]	1400 nM	
CC[Si](C)(C)c1cc(F)cc(OC(=O)NC)c1 [4g, 3-(ethyldimethylsilyl)-5-fluorophenyl methylcarbamate]	1900 nM	
CCC(CC)CSc1ccccc1OC(=O)NC [5a]		IC50 ([2]; read-out: hAChE IC50 ^a; acetylthiocholine, pH 7.8, 10 min pre-incubation, 0.1% DMSO; covalent; cited from earlier work): 5000 nM
CCCSc1ccccc1OC(=O)NC [6a, 2-(propylthio)phenyl methylcarbamate]	2300 nM	
